For data set [1], the system named is cytochrome p450 (CPY) system. Conditions: cited from earlier work.
The conditions of data set [2]: cited from earlier work.
The conditions of data set [3]: Parkinson's disease, 3.5-4.5 mg/day; decreased when the dose was lowered; cited from earlier work.
The conditions of data set [4]: in vivo; cited from earlier work.
For data set [5] the following is noted: bipolar II, 6 weeks, n=10; cited from earlier work.
Experiment in data set [6]: not given
The source holds these as a separate data set.

Data set [7] in a line: Clinical cases: appetite / hunger. The following applies: Example 10, olanzapine 2.5 mg HS.
For data set [8] the following is noted: macroprolactinomas; cited from earlier work.
For data set [9] the following is noted: in vivo; cited from earlier work. This is another data set of the same source.
For data set [10] the following is noted: in vivo; cited from earlier work. This is another data set of the same source.
For another data set, the target named is D3 (Homo sapiens, UniProt P35462). Conditions: cited from earlier work.
The nature of data set [11]: Clinical cases: galactorrhea. Conditions: Example 2, risperidone 2 mg per day.
[12] abbreviates: Example 12, approximately two months on pramipexole, same as before starting.
Where [13] appears, read: Example 9, pramipexole 0.25 mg AM & HS with quetiapine.

Molecules are shown by their SMILES. Like-named read-outs stand apart in the source and are kept apart here.

D3, sequence (P35462 whole entry): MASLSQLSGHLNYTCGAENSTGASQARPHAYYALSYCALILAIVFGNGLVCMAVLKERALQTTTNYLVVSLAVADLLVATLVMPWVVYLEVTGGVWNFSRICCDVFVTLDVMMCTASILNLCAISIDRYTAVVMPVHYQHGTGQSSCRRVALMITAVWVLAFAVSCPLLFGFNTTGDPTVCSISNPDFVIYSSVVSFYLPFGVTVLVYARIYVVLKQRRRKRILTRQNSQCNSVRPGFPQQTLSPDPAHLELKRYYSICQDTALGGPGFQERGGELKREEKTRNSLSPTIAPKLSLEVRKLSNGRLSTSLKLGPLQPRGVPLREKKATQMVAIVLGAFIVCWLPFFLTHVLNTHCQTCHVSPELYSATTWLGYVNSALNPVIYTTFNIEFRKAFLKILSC

On to `CCCN[C@H]1CCc2nc(N)sc2C1` [pramipexole], for which the “interaction with the cytochrome p450 system” value in data set [1] is recorded as “does not interact”. Also, the increase in anxiety in data set [2] (early in the dose escalation) is recorded as 18 of 38. Further, in data set [2] (fibromyalgia, 14 week study), the nausea reported is given as 79%. The effect on weight result in [3] was “caused weight gain”. Further, the “excreted unchanged in the urine” value in [4] is on record as 90%. Also, the “subjects who developed hypomanic symptoms” value in [5] is reported as “One”. Under “Example 7, pre-pramipexole 2.88 mmol/L”, this molecule gave a triglycerides after pramipexole of 2.4 mmol/L. This molecule showed a cholesterol after pramipexole (Example 7, pre-pramipexole 6.6 mmol/L) of 5.6 mmol/L. This molecule also gave a cholesterol under setting [12] of 7.5 mmol/L. Besides, the “fasting blood sugar (FBS)” value under setting [12] turned out to be 6.6 mmol/L. For the same molecule, the triglycerides under setting [12] was determined as 3.6 mmol/L. Besides, the weight lost in data set [6] (Example 1, pramipexole 0.25 mg twice per day with olanzapine 20 mg per day) is recorded as 11 pounds; in data set [6] (Example 13, pramipexole up to 0.25 mg twice per day, in three weeks) it was 5 pounds. Further, the weight after treatment in [6] (Example 1, pramipexole 0.25 mg twice per day with olanzapine 20 mg per day, from 187 pounds) is 176 pounds; in data set [6] (Example 5, pramipexole increased to 0.25 mg per day, after 6 weeks), 154 pounds; in data set [6] (Example 6, pramipexole 0.25 mg per day, from 247 pounds), 244 pounds; in data set [6] (Example 7, pramipexole 0.25 mg per day, later) it was 212 pounds; in [6] (Example 7, pramipexole increased to 0.25 mg per day, in two weeks) it was 214 pounds; in data set [6] (Example 12, pramipexole 0.25 mg twice per day) it was 172 pounds. The same molecule had a weight after treatment in data set [6] (Example 13, pramipexole up to 0.25 mg twice per day, from 132 pounds) of 127 pounds. Also, the weight maintained at in data set [6] (Example 3, olanzapine 10 mg per day with pramipexole up to 0.75 mg per day, prednisone 5 mg per day added) came to 202 pounds; in [6] (Example 4, olanzapine 5 mg per day with pramipexole 0.25 mg twice per day), 168 pounds; in [6] (Example 8, olanzapine 15 mg per day with pramipexole 0.25 mg TID), 259 pounds; in data set [6] (setting [13]) it was 157 pounds; in data set [6] (Example 14, olanzapine 10 mg per day with pramipexole 0.25 mg twice per day, several months), 312 pounds. Moreover, the “weight after restarting pramipexole” value in data set [6] (Example 4, 0.25 mg twice daily, within the next two weeks) is given as 174 pounds. In addition, the “weight after discontinuing pramipexole” value in data set [6] (Example 4, within one week, on olanzapine 5 mg per day) amounted to 181 pounds; in data set [6] (Example 6) it was 250 pounds. Besides, the “weight decreased by” value in [6] (setting [13]) worked out at 3 pounds. Moreover, the weight gained in data set [6] (Example 11, pramipexole 0.25 mg AM & HS for 3 weeks, with quetiapine) is recorded as 5 pounds.
Take `C[C@]12C=CC(=O)C=C1CC[C@@H]1[C@@H]2C(=O)C[C@@]2(C)[C@H]1CC[C@]2(O)C(=O)CO` [prednisone]: the weight after treatment in data set [6] (human, in vivo) was 185 pounds.
On to `Cc1cc2c(s1)Nc1ccccc1N=C2N1CCN(C)CC1` [olanzapine], for which, in data set [7], the appetite entry is “marked increase in appetite”.
Take `CCCN1CC(NS(=O)(=O)N(CC)CC)CC2Cc3c(O)cccc3CC21` (centres unmarked) [Quinagolide, quinagolide]: in data set [8], the “patients with significant weight loss” value is 11 of 12. In data set [9], the half-life – broadly, how long it takes for the measured level to halve – is 24 h.
With `CC(C)C[C@H]1C(=O)N2CCC[C@H]2[C@]2(O)O[C@](NC(=O)[C@@H]3C=C4c5cccc6[nH]c(Br)c(c56)C[C@H]4N(C)C3)(C(C)C)C(=O)N12` [bromocriptine], in data set [10], the abdominal cramps was 4%, the constipation is 3%, the diarrhea is 3% and the dizziness is given as 17%. In addition, in [10], the drowsiness is given as 3%, the fatigue is 7%, the headache is given as 19% and the “incidence of adverse effects” value is given as 69%. In addition, in [10], the lightheadedness was 5%, the nasal congestion was 3%, the nausea was 49% and the “patients in whom therapy was discontinued because of adverse effects” value was “approximately 5%”. Also, in data set [10], the vomiting is 5%.
Consider `CCCN(CCC)CCc1cccc2c1CC(=O)N2` [ropinirole], for which, in [1], the “interaction with the cytochrome p450 system” value is “p450 interactions”. For the same molecule, the “D3 affinity relative to pramipexole” value on D3 is on record as “less D3 affinity”.
Turning to `Cc1nc2n(c(=O)c1CCN1CCC(c3noc4cc(F)ccc34)CC1)CCCC2` [risperidone], the galactorrhea result in [11] is listed as “developed galactorrhea”.

The values above are taken from US20100311717A1, “METHODS AND COMPOSITIONS FOR RETARDING WEIGHT GAIN ASSOCIATED WITH USE OF ATYPICAL ANTIPSYCHOTIC DRUGS” (priority 2007, published 2010).
